Paper PMC8274517, “Diaryl azo derivatives as anti-diabetic and antimicrobial agents: synthesis, in vitro, kinetic and docking studies” (Journal of Enzyme Inhibition and Medicinal Chemistry, 2021)
≈ marks a conversion by molar mass, not a printed value. Entries after “also recorded” stand apart in the source; their conditions may differ.

Columns and labels:
[1] = system: screened pathogens (S. aureus, P. aeruginosa, E. coli and P. vulgaris); assay: Antibacterial activity, average MIC over screened pathogens; assay type: cell-based
Procedure: The prepared azo derivatives were screened for their antibacterial activity against six bacterial strains obtained from hospital isolates i.e. gram positive (S. aureus, S. aureus (DR)) and gram-negative (E. coli, P. aeruginosa, P. aeruginosa (DR), P. vulgaris). […] The antibacterial evaluation was done by agar disc diffusion method[39]^,[40] and MIC was determined. In summary, a 48-h old inoculum having ∼0.48 OD600, of the above-mentioned bacterial strains was spread on the solidified trypticase soy agar media and Whatman no. 1 filter paper discs (5 mm in diameter) soaked with the title compounds (10 µL/disc of 10 mg/mL) were placed on the plates.

α-glucosidase [2] = assay: In vitro α-glucosidase inhibition assay (pNPG substrate); assay type: biochemical, Saccharomyces Cerevisiae; conditions: for IC50: means ± SEM of triplicate
Procedure: The α-glucosidase inhibition assay was performed as described previously. In summary, the stock solution of the enzyme from Saccharomyces Cerevisiae (0.2 U/mL) was prepared in 0.05 M sodium phosphate buffer pH 6.8. […] After incubation, 10 µL of the substrate, p-nitrophenyl α-D-glucopyranoside (pNPG, 5 mM solution in 0.05 M phosphate buffer) was added to the aboveprepared mixture and incubated again under the same experimental conditions. The reaction was stopped with the addition of 0.1 M Na2CO3 and OD405 was taken by a 96-well ELISA reader. The experiment was performed in triplicate.

S. aureus (DS) [3] = assay: Antibiofilm assay (crystal violet); assay type: cell-based; conditions: 0.5 mg/mL
Procedure: (§1) The antibiofilm activity of the synthesised azo derivatives was assessed by microtitre plate-based crystal violet method[44] against respective bacterial strains i.e. gram-positive (S. aureus, S. aureus (DR)) and gram-negative (P. aeruginosa, P. aeruginosa (DR)). In brief, 10 µL bacterial suspension, 100 µL trypticase soy broth and 10 µL (10 mg/mL) of test compounds were added in the wells in duplicates and incubated at 37 °C overnight. Ampicillin and moxifloxacin were used as positive controls. After the aspiration of planktonic cells, the biofilm was fixed with 99% methanol. The wells were then washed with 0.1 M sterile PBS (pH = 6.9) thrice and air-dried. Then, 200 µL of crystal violet solution (2%) was added to all wells. After 15 min, the excess of the crystal violet dye was removed and the wells were washed again with PBS. Then, the cell-bound crystal violet was dissolved in 33% acetic acid. The biofilm growth was quantified in terms of OD575 nm using an ELISA plate reader and biofilm hydrolysis was calculated by % inhibition formula.

E. coli = assay: Antibacterial activity, minimum inhibitory concentration; assay type: cell-based; set-up: key: R: resistant; S: sensitive
Procedure: (§2) The prepared azo derivatives were screened for their antibacterial activity against six bacterial strains obtained from hospital isolates i.e. gram positive (S. aureus, S. aureus (DR)) and gram-negative (E. coli, P. aeruginosa, P. aeruginosa (DR), P. vulgaris). All the strains were confirmed by biochemical identification and drug susceptibility methods. The antibacterial evaluation was done by agar disc diffusion method[39]^,[40] and MIC was determined. In summary, a 48-h old inoculum having ∼0.48 OD600, of the above-mentioned bacterial strains was spread on the solidified trypticase soy agar media and Whatman no. 1 filter paper discs (5 mm in diameter) soaked with the title compounds (10 µL/disc of 10 mg/mL) were placed on the plates. Ampicillin and moxifloxacin were used as positive controls and DMSO as negative control respectively.

P. aeruginosa (DR) [4] = assay: as above; assay type: cell-based; set-up: key: R: resistant; S: sensitive
Procedure: as §2

P. vulgaris = assay: as above; assay type: cell-based; set-up: key: R: resistant; S: sensitive
Procedure: as §2

S. aureus (DS) [5] = assay: as above; assay type: cell-based; set-up: key: R: resistant; S: sensitive
Procedure: as §2

P. aeruginosa (DS) [6] = assay: as above; assay type: cell-based; set-up: key: R: resistant; S: sensitive
Procedure: as §2

S. aureus (DR) [7] = assay: as above; assay type: cell-based; set-up: key: R: resistant; S: sensitive
Procedure: as §2

α-glucosidase [8] = assay: Kinetic analysis and inhibition mechanism of α-glucosidase inhibition; assay type: biochemical, Saccharomyces Cerevisiae
Procedure: The potential inhibitor with concentrations 0.00, 0.062, 0.125, 0.25, 0.5 mM was selected for kinetic studies. The substrate (pNPG) concentration was optimised from 5 to 40 mM in all kinetic studies. Pre-incubation and measurement time was the same as discussed in α-glucosidase inhibition assay. The assay was continuously monitored at 405 nm for 5 min at 30 s intervals in the microplate reader after the addition of the enzyme. The inhibition type on the enzyme was assayed by Lineweaver–Burk plots of the inverse of velocities (1/V) versus the inverse of substrate concentration 1/[S] mM^−1, and the inhibition constant Ki was determined by two ways (Dixon plot of 1/V versus inhibitor concentrations) as well as secondary replot of slope versus inhibitor concentrations from Lineweaver–Burk plot.
The plot of the remaining enzyme activity versus the concentrations of the enzyme at different inhibitor concentrations (0.00, 0.062, 0.125, 0.25 and 0.5 mM) was calculated.

P. aeruginosa (DR) [9] = assay: Antibiofilm assay (crystal violet); assay type: cell-based; conditions: 0.5 mg/mL; for inhibition at 500 µg/mL: Pseudomonas aeruginosa, read-out: biofilm inhibition (anti-biofilm potency)
Procedure: as §1

P. aeruginosa (DS) [10] = assay: Antibiofilm assay (crystal violet); assay type: cell-based; conditions: 0.5 mg/mL
Procedure: as §1

S. aureus (DR) [11] = assay: Antibiofilm assay (crystal violet); assay type: cell-based; conditions: 0.5 mg/mL
Procedure: as §1

Compound | % Inhibition (α-glucosidase [2]; 15.62 µg/mL) [%] | % Inhibition (α-glucosidase [2]; 31.2 µg/mL) [%] | % Inhibition (α-glucosidase [2]; 125 µg/mL) [%] | % Inhibition (α-glucosidase [2]; 250 µg/mL) [%] | IC50 (α-glucosidase [2]) [µg/mL] | biofilm inhibition (S. aureus (DS) [3]) | Minimum inhibitory concentration: sensitive/resistant (E. coli; 125 µg/200 µL) | Minimum inhibitory concentration: sensitive/resistant (E. coli; 250 µg/200 µL) | Minimum inhibitory concentration: sensitive/resistant (P. aeruginosa (DR) [4]; 125 µg/200 µL) | Minimum inhibitory concentration: sensitive/resistant (P. aeruginosa (DR) [4]; 250 µg/200 µL) | Minimum inhibitory concentration: sensitive/resistant (P. vulgaris; 125 µg/200 µL) | Minimum inhibitory concentration: sensitive/resistant (P. vulgaris; 250 µg/200 µL) | Minimum inhibitory concentration: sensitive/resistant (S. aureus (DS) [5]; 125 µg/200 µL) | Minimum inhibitory concentration: sensitive/resistant (S. aureus (DS) [5]; 250 µg/200 µL) | Minimum inhibitory concentration: sensitive/resistant (P. aeruginosa (DS) [6]; 125 µg/200 µL) | Minimum inhibitory concentration: sensitive/resistant (P. aeruginosa (DS) [6]; 250 µg/200 µL) | Minimum inhibitory concentration: sensitive/resistant (S. aureus (DR) [7]; 125 µg/200 µL) | Minimum inhibitory concentration: sensitive/resistant (S. aureus (DR) [7]; 250 µg/200 µL) | melting point [°C] | other results
O=[N+]([O-])c1ccc(/N=N/c2ccc(O)cc2O)cc1 [TR-1, (E)-4-((4-nitrophenyl)diazenyl)benzene-1,3-diol] | 49 | 68 | 88 | 95 | 15.70 ± 1.3 (≈ 60.6 µM) | greater than 70% | S | S | S | S | S | S | S | S | R | R | R | R | – | MIC (average value) [1]: 125 µg/200 µL; Ki (α-glucosidase [8]; EI dissociation constant, Dixon plot and secondary replot): 220 µM; Inhibition type (α-glucosidase [8]; Lineweaver–Burk plot): Non-competitive; Km (α-glucosidase [8]; inhibitor dose 0.062 mM): 20 mM; Vmax (α-glucosidase [8]; inhibitor dose 0.062 mM): 0.166 ΔA/S; Km (α-glucosidase [8]; inhibitor dose 0.125 mM): 20 mM; Vmax (α-glucosidase [8]; inhibitor dose 0.125 mM): 0.125 ΔA/S; Km (α-glucosidase [8]; inhibitor dose 0.25 mM): 20 mM; Vmax (α-glucosidase [8]; inhibitor dose 0.25 mM): 0.090 ΔA/S; Km (α-glucosidase [8]; inhibitor dose 0.50 mM): 20 mM; Vmax (α-glucosidase [8]; inhibitor dose 0.50 mM): 0.071 ΔA/S; Inhibition (reversibility) (α-glucosidase [8]; remaining enzyme activity versus enzyme concentration): reversibly; also recorded: reversible
O=[N+]([O-])c1ccc(/N=N/c2c(O)ccc3ccccc23)cc1 [TR-3, (E)-1-((4-nitrophenyl)diazenyl)naphthalen-2-ol] | 12 | 25 | 54 | – | 116.9 ± 8.6 (≈ 399 µM) | greater than 70% | R | R | R | R | R | R | R | R | R | S | R | R | 245 to 252 | –
Oc1ccc(N=Nc2cccnc2Cl)c(O)c1 [TR-7, 4-((2-chloropyridin-3-yl)diazenyl)benzene-1,3-diol] | 34 | 52 | 77 | 87 | 29.7 ± 2.8 (≈ 119 µM) | – | R | R | S | S | R | R | R | R | R | R | R | R | 187 to 189 | inhibition at 500 µg/mL (P. aeruginosa (DR) [9]): 55%; biofilm inhibition (P. aeruginosa (DS) [10]): not found active
Oc1ccc(N=Nc2cccnc2Cl)c2ccccc12 [TR-8, 4-((2-chloropyridin-3-yl)diazenyl)naphthalen-1-ol] | 29 | 45 | 75 | 98 | 36.7 ± 3.1 (≈ 129 µM) | greater than 70% | R | R | R | R | R | R | S | S | R | S | R | R | 170 to 175 | inhibition at 500 µg/mL (P. aeruginosa (DR) [9]): 80%; biofilm hydrolysis efficiency (S. aureus (DR) [11]): drastically decreased
(E)-1-(p-tolyldiazenyl)naphthalen-2-ol [TR-5] | 14 | 22 | 49 | 56 | 153.4 ± 11.5 | – | S | S | S | S | R | R | R | R | R | S | S | S | – | biofilm inhibition (anti-biofilm potency) (P. aeruginosa (DR) [9]): 80%
(E)-4-(p-tolyldiazenyl)naphthalen-1-ol [TR-4] | 7 | 13 | 35 | 43 | – | – | R | R | S | S | S | S | S | S | S | S | S | S | – | MIC (average value) [1]: 125 µg/200 µL
penicillin [reference compound] | – | – | – | – | – | 65% | – | – | – | – | – | – | – | – | – | – | – | – | – | biofilm inhibition (P. aeruginosa (DS) [10]): 60%
